# Results published in ChEMBL document CHEMBL1909046, “DrugMatrix in vitro pharmacology data”.
# pIC50, pKi: −log10 of the molar value.
# Molecular target: Cannabinoid receptor 1 (Homo sapiens, UniProt P21554); further: in other assays of this panel Not Active means under 50% inhibition at 10 µM
# Type: cell membranes, Chem-1, Membrane
# Details: chem-1
# Chain of Cannabinoid receptor 1 (P21554 whole entry): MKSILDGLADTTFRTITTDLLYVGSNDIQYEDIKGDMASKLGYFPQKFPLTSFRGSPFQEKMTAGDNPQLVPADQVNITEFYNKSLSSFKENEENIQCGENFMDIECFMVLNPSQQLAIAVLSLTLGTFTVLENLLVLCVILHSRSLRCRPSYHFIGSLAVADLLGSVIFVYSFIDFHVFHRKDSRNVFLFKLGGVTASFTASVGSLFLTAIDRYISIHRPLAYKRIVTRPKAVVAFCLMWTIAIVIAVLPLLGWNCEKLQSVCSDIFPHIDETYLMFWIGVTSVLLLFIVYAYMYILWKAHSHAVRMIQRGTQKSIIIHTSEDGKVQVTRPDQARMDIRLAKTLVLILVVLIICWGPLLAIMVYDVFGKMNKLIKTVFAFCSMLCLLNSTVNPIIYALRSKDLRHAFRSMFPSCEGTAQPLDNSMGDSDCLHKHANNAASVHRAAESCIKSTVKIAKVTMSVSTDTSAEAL
row,SMILES,IC50
1,O=C1CC2(CCCC2)CC(=O)N1CCCCN1CCN(c2ncccn2)CC1 [BUSPIRONE],Not Active
2,C[C@@]12C(=O)OC(=O)[C@]1(C)[C@H]1CC[C@@H]2O1 [CANTHARIDIN],Not Active
3,CC1=C(C(=O)O)N2C(=O)[C@@H](NC(=O)[C@H](N)c3ccccc3)[C@H]2SC1 [CEPHALEXIN ANHYDROUS],Not Active
4,ClC(Cl)Cl [CHLOROFORM],Not Active
5,C=C1CC[C@H](O)C/C1=C/C=C1\CCC[C@]2(C)[C@@H]([C@H](C)CCCC(C)C)CC[C@@H]12 [CHOLECALCIFEROL],Not Active
6,C[N+](C)(C)CCO.[Cl-] [CHOLINE CHLORIDE],Not Active
7,CCOC(=O)C(C)(C)Oc1ccc(Cl)cc1 [CLOFIBRATE],Not Active
8,CC(=O)OCC(=O)[C@@]1(O)CC[C@H]2[C@@H]3CCC4=CC(=O)CC[C@]4(C)[C@H]3C(=O)C[C@@]21C [CORTISONE ACETATE],Not Active

# Molecular target: T1, Cholecystokinin receptor type A (Homo sapiens, UniProt P32238); further: in other assays of this panel Not Active means under 50% inhibition at 10 µM
# T1 sequence (P32238 whole entry): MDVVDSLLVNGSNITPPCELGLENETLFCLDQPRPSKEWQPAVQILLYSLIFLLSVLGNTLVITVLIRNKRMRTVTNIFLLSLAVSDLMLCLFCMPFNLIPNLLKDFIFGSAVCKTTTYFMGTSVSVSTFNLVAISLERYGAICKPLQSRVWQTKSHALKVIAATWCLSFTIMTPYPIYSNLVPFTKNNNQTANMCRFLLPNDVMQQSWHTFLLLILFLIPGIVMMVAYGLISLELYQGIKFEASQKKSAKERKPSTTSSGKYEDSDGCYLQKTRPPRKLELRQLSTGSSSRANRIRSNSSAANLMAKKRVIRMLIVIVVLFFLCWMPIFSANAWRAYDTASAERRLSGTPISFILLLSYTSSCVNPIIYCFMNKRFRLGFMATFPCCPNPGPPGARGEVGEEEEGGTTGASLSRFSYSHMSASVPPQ
# Type: cell membranes, Membrane
# Details: 1321-n1
row,SMILES,IC50
1,O=C1CC2(CCCC2)CC(=O)N1CCCCN1CCN(c2ncccn2)CC1 [BUSPIRONE],Not Active
2,C[C@@]12C(=O)OC(=O)[C@]1(C)[C@H]1CC[C@@H]2O1 [CANTHARIDIN],Not Active
3,CC1=C(C(=O)O)N2C(=O)[C@@H](NC(=O)[C@H](N)c3ccccc3)[C@H]2SC1 [CEPHALEXIN ANHYDROUS],Not Active
4,ClC(Cl)Cl [CHLOROFORM],Not Active
5,C=C1CC[C@H](O)C/C1=C/C=C1\CCC[C@]2(C)[C@@H]([C@H](C)CCCC(C)C)CC[C@@H]12 [CHOLECALCIFEROL],Not Active
6,C[N+](C)(C)CCO.[Cl-] [CHOLINE CHLORIDE],Not Active
7,CCOC(=O)C(C)(C)Oc1ccc(Cl)cc1 [CLOFIBRATE],Not Active
8,CC(=O)OCC(=O)[C@@]1(O)CC[C@H]2[C@@H]3CCC4=CC(=O)CC[C@]4(C)[C@H]3C(=O)C[C@@]21C [CORTISONE ACETATE],Not Active

# Molecular target: D(3) dopamine receptor (Homo sapiens, UniProt P35462)
# Sequence (P35462 whole entry): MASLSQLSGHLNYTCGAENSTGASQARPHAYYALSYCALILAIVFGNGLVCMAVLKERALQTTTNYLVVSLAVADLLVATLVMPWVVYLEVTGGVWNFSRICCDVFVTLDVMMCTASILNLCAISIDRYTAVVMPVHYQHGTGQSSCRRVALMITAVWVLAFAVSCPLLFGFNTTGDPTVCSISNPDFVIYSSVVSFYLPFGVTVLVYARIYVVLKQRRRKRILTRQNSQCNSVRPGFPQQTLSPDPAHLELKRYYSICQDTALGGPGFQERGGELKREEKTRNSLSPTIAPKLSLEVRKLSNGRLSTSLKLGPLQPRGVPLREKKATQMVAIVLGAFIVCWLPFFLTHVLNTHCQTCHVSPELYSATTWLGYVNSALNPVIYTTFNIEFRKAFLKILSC
# Test: DRUGMATRIX: Dopamine D3 radioligand binding (ligand: [3H] Spiperone)
# Type: cell membranes, CHO, Membrane
# Details: not given
row,SMILES,pKi
1,O=C1CC2(CCCC2)CC(=O)N1CCCCN1CCN(c2ncccn2)CC1 [BUSPIRONE],7.82

# Same assay, conditions: cho
row,SMILES,IC50
1,C[C@@]12C(=O)OC(=O)[C@]1(C)[C@H]1CC[C@@H]2O1 [CANTHARIDIN],Not Active
2,CC1=C(C(=O)O)N2C(=O)[C@@H](NC(=O)[C@H](N)c3ccccc3)[C@H]2SC1 [CEPHALEXIN ANHYDROUS],Not Active
3,ClC(Cl)Cl [CHLOROFORM],Not Active
4,C=C1CC[C@H](O)C/C1=C/C=C1\CCC[C@]2(C)[C@@H]([C@H](C)CCCC(C)C)CC[C@@H]12 [CHOLECALCIFEROL],Not Active
5,C[N+](C)(C)CCO.[Cl-] [CHOLINE CHLORIDE],Not Active
6,CCOC(=O)C(C)(C)Oc1ccc(Cl)cc1 [CLOFIBRATE],Not Active
7,CC(=O)OCC(=O)[C@@]1(O)CC[C@H]2[C@@H]3CCC4=CC(=O)CC[C@]4(C)[C@H]3C(=O)C[C@@]21C [CORTISONE ACETATE],Not Active

# Same assay, conditions: read-out: IC50
row,SMILES,pIC50
1,O=C1CC2(CCCC2)CC(=O)N1CCCCN1CCN(c2ncccn2)CC1 [BUSPIRONE],7.36

# Tested on: not listed separately
# Test: DRUGMATRIX: Phorbol Ester radioligand binding (ligand: [3H] PDBu)
# Type: cell membranes, Mus musculus, ICR, Brain, Membrane
# Details: Not Active = under 50% inhibition at 10 µM
SMILES,IC50,Ki
O=C1CC2(CCCC2)CC(=O)N1CCCCN1CCN(c2ncccn2)CC1 [BUSPIRONE],Not Active,Not Active
C[C@@]12C(=O)OC(=O)[C@]1(C)[C@H]1CC[C@@H]2O1 [CANTHARIDIN],Not Active,Not Active
CC1=C(C(=O)O)N2C(=O)[C@@H](NC(=O)[C@H](N)c3ccccc3)[C@H]2SC1 [CEPHALEXIN ANHYDROUS],Not Active,Not Active
ClC(Cl)Cl [CHLOROFORM],Not Active,Not Active
C=C1CC[C@H](O)C/C1=C/C=C1\CCC[C@]2(C)[C@@H]([C@H](C)CCCC(C)C)CC[C@@H]12 [CHOLECALCIFEROL],Not Active,Not Active
C[N+](C)(C)CCO.[Cl-] [CHOLINE CHLORIDE],Not Active,Not Active
CCOC(=O)C(C)(C)Oc1ccc(Cl)cc1 [CLOFIBRATE],Not Active,Not Active
CC(=O)OCC(=O)[C@@]1(O)CC[C@H]2[C@@H]3CCC4=CC(=O)CC[C@]4(C)[C@H]3C(=O)C[C@@]21C [CORTISONE ACETATE],Not Active,Not Active

# Tested on: not listed separately
# Test: DRUGMATRIX: Phosphodiesterase PDE4 enzyme inhibition (substrate: [3H]cAMP + cAMP)
# Details: u-937; Not Active = under 50% inhibition at 10 µM
SMILES,IC50,Ki
O=C1CC2(CCCC2)CC(=O)N1CCCCN1CCN(c2ncccn2)CC1 [BUSPIRONE],Not Active,Not Active
C[C@@]12C(=O)OC(=O)[C@]1(C)[C@H]1CC[C@@H]2O1 [CANTHARIDIN],Not Active,Not Active
CC1=C(C(=O)O)N2C(=O)[C@@H](NC(=O)[C@H](N)c3ccccc3)[C@H]2SC1 [CEPHALEXIN ANHYDROUS],Not Active,Not Active
ClC(Cl)Cl [CHLOROFORM],Not Active,Not Active
C=C1CC[C@H](O)C/C1=C/C=C1\CCC[C@]2(C)[C@@H]([C@H](C)CCCC(C)C)CC[C@@H]12 [CHOLECALCIFEROL],Not Active,Not Active
C[N+](C)(C)CCO.[Cl-] [CHOLINE CHLORIDE],Not Active,Not Active
CCOC(=O)C(C)(C)Oc1ccc(Cl)cc1 [CLOFIBRATE],Not Active,Not Active
CC(=O)OCC(=O)[C@@]1(O)CC[C@H]2[C@@H]3CCC4=CC(=O)CC[C@]4(C)[C@H]3C(=O)C[C@@]21C [CORTISONE ACETATE],Not Active,Not Active

# Molecular target: T2, Caspase-1 (Homo sapiens, UniProt P29466);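 further: Caspase-1 enzyme inhibition assay with a peptide substrate; in other assays of this panel Not Active means under 50% inhibition at 10 µM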
# T2 sequence (P29466 whole entry): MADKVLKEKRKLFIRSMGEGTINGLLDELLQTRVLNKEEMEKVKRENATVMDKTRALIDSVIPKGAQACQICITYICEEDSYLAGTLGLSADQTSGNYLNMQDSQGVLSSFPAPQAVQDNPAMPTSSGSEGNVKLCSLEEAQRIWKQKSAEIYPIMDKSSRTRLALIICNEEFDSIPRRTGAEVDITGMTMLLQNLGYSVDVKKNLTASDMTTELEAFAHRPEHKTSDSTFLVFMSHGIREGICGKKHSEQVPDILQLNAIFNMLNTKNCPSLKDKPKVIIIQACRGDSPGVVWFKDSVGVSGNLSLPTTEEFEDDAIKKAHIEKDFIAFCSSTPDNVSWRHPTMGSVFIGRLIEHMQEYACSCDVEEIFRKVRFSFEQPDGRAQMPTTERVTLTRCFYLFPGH
# Design: species or system Escherichia coli
# Details: not given
row,SMILES,IC50
1,O=C1CC2(CCCC2)CC(=O)N1CCCCN1CCN(c2ncccn2)CC1 [BUSPIRONE],Not Active
2,C[C@@]12C(=O)OC(=O)[C@]1(C)[C@H]1CC[C@@H]2O1 [CANTHARIDIN],Not Active
3,CC1=C(C(=O)O)N2C(=O)[C@@H](NC(=O)[C@H](N)c3ccccc3)[C@H]2SC1 [CEPHALEXIN ANHYDROUS],Not Active
4,ClC(Cl)Cl [CHLOROFORM],Not Active
5,C=C1CC[C@H](O)C/C1=C/C=C1\CCC[C@]2(C)[C@@H]([C@H](C)CCCC(C)C)CC[C@@H]12 [CHOLECALCIFEROL],Not Active
6,C[N+](C)(C)CCO.[Cl-] [CHOLINE CHLORIDE],Not Active
7,CCOC(=O)C(C)(C)Oc1ccc(Cl)cc1 [CLOFIBRATE],Not Active
8,CC(=O)OCC(=O)[C@@]1(O)CC[C@H]2[C@@H]3CCC4=CC(=O)CC[C@]4(C)[C@H]3C(=O)C[C@@]21C [CORTISONE ACETATE],Not Active

# Molecular target: T3, Cytochrome P450 2A6 (Homo sapiens, UniProt P11509); further: in other assays of this panel Not Active means under 50% inhibition at 10 µM
# T3 sequence (P11509 whole entry): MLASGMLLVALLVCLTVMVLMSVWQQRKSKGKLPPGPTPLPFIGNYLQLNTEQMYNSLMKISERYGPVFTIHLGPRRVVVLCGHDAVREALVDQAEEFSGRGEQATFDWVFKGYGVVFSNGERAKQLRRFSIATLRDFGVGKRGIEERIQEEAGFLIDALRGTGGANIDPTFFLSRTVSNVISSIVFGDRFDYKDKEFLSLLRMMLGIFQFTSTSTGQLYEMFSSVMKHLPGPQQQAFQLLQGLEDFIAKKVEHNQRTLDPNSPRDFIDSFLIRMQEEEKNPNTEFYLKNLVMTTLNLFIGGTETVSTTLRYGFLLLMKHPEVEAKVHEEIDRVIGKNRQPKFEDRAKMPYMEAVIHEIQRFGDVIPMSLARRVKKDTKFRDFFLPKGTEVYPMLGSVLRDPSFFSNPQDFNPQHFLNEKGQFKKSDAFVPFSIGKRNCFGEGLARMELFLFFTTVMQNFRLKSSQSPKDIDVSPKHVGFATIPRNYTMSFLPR
# Details: bti-tn-5b1-4
SMILES,IC50,Ki
O=C1CC2(CCCC2)CC(=O)N1CCCCN1CCN(c2ncccn2)CC1 [BUSPIRONE],Not Active,Not Active
C[C@@]12C(=O)OC(=O)[C@]1(C)[C@H]1CC[C@@H]2O1 [CANTHARIDIN],Not Active,Not Active
CC1=C(C(=O)O)N2C(=O)[C@@H](NC(=O)[C@H](N)c3ccccc3)[C@H]2SC1 [CEPHALEXIN ANHYDROUS],Not Active,Not Active
ClC(Cl)Cl [CHLOROFORM],Not Active,Not Active
C=C1CC[C@H](O)C/C1=C/C=C1\CCC[C@]2(C)[C@@H]([C@H](C)CCCC(C)C)CC[C@@H]12 [CHOLECALCIFEROL],Not Active,Not Active
C[N+](C)(C)CCO.[Cl-] [CHOLINE CHLORIDE],Not Active,Not Active
CCOC(=O)C(C)(C)Oc1ccc(Cl)cc1 [CLOFIBRATE],Not Active,Not Active
CC(=O)OCC(=O)[C@@]1(O)CC[C@H]2[C@@H]3CCC4=CC(=O)CC[C@]4(C)[C@H]3C(=O)C[C@@]21C [CORTISONE ACETATE],Not Active,Not Active
